Patent publication US11958846B2, “Urea compounds and compositions as SMARCA2/BRM ATPase inhibitors” (Novartis AG, priority 2018, dated 2024)

Assays:
[1] = target: Brg1 ATPase-SnAC (658-1361) (Homo sapiens (Human), UniProt P51532); test: BRG1 ATPase Inhibition Assay (ADP-Glo); assay type: biochemical; details: 5 nM Brg1 ATPase-SnAC, 65 μM ATP, 2 nM pCMV-dR8.91 plasmid, 60 min RT
Method: BRG1 ATPase Inhibition Assay
BRG1 ATPase Inhibition Activity
(§1) Compound inhibition of ATPase activity of Brg1 ATPase-SnAC (658-1361) was measured by using the ADP-Glo assay kit from Promega (V6930). 120 nL of compound in 100% DMSO were transferred to a white 384 well microtiter assay plate using an ATS Acoustic Transfer System from EDC Biosystems. All subsequent reagent additions were performed using a MultiFlo FX Multi-Mode Dispenser. Assay buffer was 20 mM HEPES pH 7.5, 1 mM MgCl2, 20 mM KCl, 1 mM DTT, 0.01% BSA, 0.005% Tween 20. 4 μL of 7.5 nM Brg1 ATPase-SnAC in assay buffer was added to the assay plate and incubated at RT for 5 min with compound. 2 μL of 195 μM ATP and 6 nM pCMV-dR8.91 plasmid in assay buffer was added to assay plate to initiate the reaction. The final concentrations of reagents were 5 nM Brg1 ATPase-SnAC, 65 μM ATP, and 2 nM pCMV-dR8.91 plasmid. The ATPase reaction was incubated at RT for 60 min. 3 μL of ADP-Glo reagent was added to stop the reaction and was incubated for 30 min at RT. 3 μL of Kinase detection reagent was added to the assay plate which was incubated for 90 min at RT. Plates were read with a 2103 Multilabel Envision reader using ultrasensitive luminescence detection. IC50 values were determined from the average of duplicate data points by non-linear regression analysis of percent inhibition values plotted versus compound concentration.
(§2) pCMV-dR8.91 Plasmid Used for BRM/BRG1 ATPase Inhibition Assays:
(§3) The plasmid template pCMV-dR8.91 (see sequence below) is propagated using One Shot Stbl3 Chemically Competent E. coli (Catalog Number C73C7303, Invitrogen/Thermo Fisher Scientific) following the transformation protocol provided with the reagent. Transformed bacterial colonies are then selected on LB agar plates containing ampicillin/carbenicllin antibiotic selection medium (Catalog Number L1010, Teknova). Bacterial colonies are grown in LB liquid broth (Catalog number 10855001, Invitrogen) containing ampicillin at 100 micrograms/mL and plasmid DNA isolated according to required scale according to the manufacturers protocol provided with the Qiagen Plasmid Isolation Kits (Maxi prep, Product Id Number 10063).

[2] = target: Brm ATPase-SnAC (636-1331) (Homo sapiens, UniProt P51531); test: BRM ATPase Inhibition Assay (ADP-Glo); assay type: biochemical; details: 5 nM BRM ATPase-SnAC, 85 μM ATP, 2 nM pCMV-dR8.91 plasmid, 60 min RT
Brm ATPase-SnAC (636-1331), sequence (P51531 whole entry, looked up): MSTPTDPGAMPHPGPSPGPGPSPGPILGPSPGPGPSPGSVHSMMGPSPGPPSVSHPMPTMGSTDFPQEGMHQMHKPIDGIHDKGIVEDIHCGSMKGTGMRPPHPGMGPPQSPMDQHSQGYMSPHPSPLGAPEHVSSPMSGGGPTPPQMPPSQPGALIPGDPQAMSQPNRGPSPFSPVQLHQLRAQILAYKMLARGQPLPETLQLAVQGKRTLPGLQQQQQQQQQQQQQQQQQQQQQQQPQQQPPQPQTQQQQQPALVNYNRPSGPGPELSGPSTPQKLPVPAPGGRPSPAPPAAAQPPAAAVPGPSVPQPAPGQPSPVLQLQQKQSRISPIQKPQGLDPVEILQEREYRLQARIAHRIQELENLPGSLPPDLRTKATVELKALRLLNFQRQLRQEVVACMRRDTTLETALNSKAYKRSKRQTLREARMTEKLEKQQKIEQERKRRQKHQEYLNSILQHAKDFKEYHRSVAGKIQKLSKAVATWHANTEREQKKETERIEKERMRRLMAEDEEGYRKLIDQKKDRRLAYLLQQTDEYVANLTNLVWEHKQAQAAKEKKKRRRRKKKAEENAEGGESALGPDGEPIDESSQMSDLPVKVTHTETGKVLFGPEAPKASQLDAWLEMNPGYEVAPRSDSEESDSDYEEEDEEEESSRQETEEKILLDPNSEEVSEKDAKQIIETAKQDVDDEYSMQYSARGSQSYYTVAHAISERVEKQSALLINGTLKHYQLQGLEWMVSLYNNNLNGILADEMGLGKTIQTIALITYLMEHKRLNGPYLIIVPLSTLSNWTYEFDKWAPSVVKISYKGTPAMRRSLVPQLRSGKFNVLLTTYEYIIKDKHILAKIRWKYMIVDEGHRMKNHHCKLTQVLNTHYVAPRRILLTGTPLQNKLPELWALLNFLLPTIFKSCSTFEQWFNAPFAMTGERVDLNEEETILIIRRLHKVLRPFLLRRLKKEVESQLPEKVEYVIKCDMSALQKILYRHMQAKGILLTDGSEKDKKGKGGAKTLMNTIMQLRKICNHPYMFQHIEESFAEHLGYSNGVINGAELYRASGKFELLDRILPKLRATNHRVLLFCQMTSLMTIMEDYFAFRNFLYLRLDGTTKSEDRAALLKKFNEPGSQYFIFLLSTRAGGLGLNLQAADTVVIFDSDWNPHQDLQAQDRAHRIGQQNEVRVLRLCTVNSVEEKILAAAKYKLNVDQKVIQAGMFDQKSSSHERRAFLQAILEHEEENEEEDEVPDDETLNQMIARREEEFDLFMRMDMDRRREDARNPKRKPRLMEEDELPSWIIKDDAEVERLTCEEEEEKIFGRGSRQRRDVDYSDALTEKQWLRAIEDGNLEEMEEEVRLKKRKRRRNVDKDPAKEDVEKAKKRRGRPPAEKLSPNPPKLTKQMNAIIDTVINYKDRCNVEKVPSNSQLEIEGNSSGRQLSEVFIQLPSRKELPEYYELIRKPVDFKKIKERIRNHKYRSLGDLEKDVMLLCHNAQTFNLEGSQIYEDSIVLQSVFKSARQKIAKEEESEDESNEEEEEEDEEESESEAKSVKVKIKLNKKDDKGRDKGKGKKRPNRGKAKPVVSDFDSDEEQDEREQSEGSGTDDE
Method: BRM ATPase Inhibition Assay
as §1, with “activity of Brm ATPase-SnAC (636-1331)” for “activity of Brg1 ATPase-SnAC (658-1361)”, “Brm ATPase-SnAC (636-1331) was measured” for “Brg1 ATPase-SnAC (658-1361) was measured”, “7.5 nM Brm ATPase-SnAC in” for “7.5 nM Brg1 ATPase-SnAC in”, “μL of 255 μM ATP” for “μL of 195 μM ATP”, “5 nM BRM ATPase-SnAC, 85” for “5 nM Brg1 ATPase-SnAC, 65”, “BRM ATPase-SnAC, 85 μM ATP,” for “Brg1 ATPase-SnAC, 65 μM ATP,”
as §2, §3

Brg1 ATPase-SnAC (658-1361), sequence (P51532 other isoform, or with tags, fused parts or gaps): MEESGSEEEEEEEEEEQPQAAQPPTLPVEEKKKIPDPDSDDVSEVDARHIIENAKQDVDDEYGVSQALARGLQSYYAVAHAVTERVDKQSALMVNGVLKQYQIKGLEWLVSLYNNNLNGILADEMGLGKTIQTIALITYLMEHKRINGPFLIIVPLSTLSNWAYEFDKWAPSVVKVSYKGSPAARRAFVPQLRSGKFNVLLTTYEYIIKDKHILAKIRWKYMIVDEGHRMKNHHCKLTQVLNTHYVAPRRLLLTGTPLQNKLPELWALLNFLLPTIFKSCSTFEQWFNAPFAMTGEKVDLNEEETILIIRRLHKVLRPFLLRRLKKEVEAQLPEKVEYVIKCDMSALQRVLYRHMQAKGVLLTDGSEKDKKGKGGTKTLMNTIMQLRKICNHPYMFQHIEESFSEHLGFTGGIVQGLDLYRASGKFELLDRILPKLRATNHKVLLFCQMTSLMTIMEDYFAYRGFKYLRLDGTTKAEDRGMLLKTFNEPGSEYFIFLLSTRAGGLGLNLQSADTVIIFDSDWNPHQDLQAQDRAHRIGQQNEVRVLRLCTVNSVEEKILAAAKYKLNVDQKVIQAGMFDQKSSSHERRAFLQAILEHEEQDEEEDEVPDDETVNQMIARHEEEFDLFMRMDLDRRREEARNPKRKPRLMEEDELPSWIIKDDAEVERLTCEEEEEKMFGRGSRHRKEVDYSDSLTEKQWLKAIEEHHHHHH

`Cc1cc(NC(=O)Nc2ccnc(Cl)c2)sn1` [Example 2, 1-(2-chloropyridin-4-yl)-3-(3-methylisothiazol-5-yl)urea] was tested, and the IC50 [1] was 30 nM and the IC50 [2] was 33 nM.

`O=C(Nc1cc(C(F)F)ns1)Nc1cc(F)ncc1CO` [Example 7, 1-(3-(difluoromethyl)isothiazol-5-yl)-3-(2-fluoro-5-(hydroxymethyl)pyridin-4-yl)urea] showed an IC50 [1] of under 5 nM and an IC50 [2] of under 5 nM.

`O=C(Nc1cc(C(F)F)ns1)Nc1ccnc(F)c1CO` [Example 8, 1-(3-(difluoromethyl)isothiazol-5-yl)-3-(2-fluoro-3-(hydroxymethyl)pyridin-4-yl)urea] was tested, and the IC50 [1] was 19 nM and the IC50 [2] was 90 nM.

With `Nc1cnc(Cl)cc1NC(=O)Nc1cc(C(F)F)ns1` [Example 4, 1-(5-amino-2-chloropyridin-4-yl)-3-(3-(difluoromethyl)isothiazol-5-yl)urea] the IC50 [1] was under 5 nM and the IC50 [2] was under 5 nM.

In the case of `O=C(Nc1cc(C(F)F)ns1)Nc1cc(Cl)ncc1CO` [Example 5, 1-(2-chloro-5-(hydroxymethyl)pyridin-4-yl)-3-(3-(difluoromethyl)isothiazol-5-yl)urea], the IC50 [1] is reported as under 5 nM and the IC50 [2] is reported as under 5 nM.

`Nc1cnc(F)cc1NC(=O)Nc1cc(C(F)F)ns1` [Example 6, 1-(5-amino-2-fluoropyridin-4-yl)-3-(3-(difluoromethyl)isothiazol-5-yl)urea] was tested, and the IC50 [1] was under 5 nM and the IC50 [2] was under 5 nM.

With `O=C(Nc1ccnc(Cl)c1)Nc1cc(C(F)F)ns1` [Example 1, 1-(2-chloropyridin-4-yl)-3-(3-(difluoromethyl)isothiazol-5-yl)urea] the IC50 [1] was 6 nM and the IC50 [2] was 5 nM.
